Patent US20040077640A1 (priority 2000, published 2004)
Where a name gives a salt, the structure may show the parent alone.

Row | Compound | melting point [°C]
1 | CC(C)(C)OC(=O)N1CCC(c2nc(-c3ccc(F)cc3)c[nH]2)CC1 | 180 to 182
2 | COc1ccc(-c2c[nH]c(C3CCNCC3)n2)cc1 (as salt: hydrochloride) | 272 to 273
3 | c1ccc(CN2CCC(c3nc(-c4ccc(-c5ccccc5)cc4)c[nH]3)CC2)cc1 [Example 12, 1-benzyl4-[4-(1,1′-biphenyl-4-yl)-1H-imidazol-2-yl]piperidine] | 110 to 112
4 | CCCCOC(=O)N1CCC(c2nc(-c3ccc(C(C)(C)C)cc3)c[nH]2)CC1 [Example 13, butyl 4-[4-(4-tert-butylphenyl)-1H-imidazol-2-yl]piperidine-1-carboxylate] | 98 to 100
5 | Fc1ccc(-c2c[nH]c(C3CCNCC3)n2)cc1 (as salt: hydrochloride) | > 260
6 | CCCCOC(=O)N1CCC(c2nc(-c3ccc(OC)cc3)c[nH]2)CC1 [Example 26, butyl 4-[4-(4-methoxyphenyl)-1H-imidazol-2-yl]piperidine-1-carboxylate] | 48 to 50
7 | Fc1ccc(-c2c[nH]c(C3CCCCN3)n2)cc1 (stereo not drawn) (as salt: hydrochloride) | 222 to 223

Further lines, results first:

Row | melting point [°C] | Compound
8 | 226 to 227 | c1ccc(-c2ccc(-c3c[nH]c(C4CCCNC4)n3)cc2)cc1 (stereo not drawn) (as salt: hydrochloride) [Example 22, 3-[4-(1,1′-biphenyl-4-yl)-1H-imidazol-2-yl]piperidine]
9 | 166 to 167 | CCCCOC(=O)N1CCCCC1c1nc(-c2ccc(-c3ccccc3)cc2)c[nH]1 (stereo not drawn) [Example 23, butyl 2-[4-(1,1′-biphenyl-4-yl)-1H-imidazol-2-yl]piperidine-1-carboxylate]
10 | 96.5 | CCCCOC(=O)N1CCCC(c2nc(-c3ccc(F)cc3)c[nH]2)C1 (stereo not drawn)
11 | 73 to 74 | CCCCOC(=O)N1CCC(c2nc(-c3ccc(-c4ccccc4)cc3)c[nH]2)CC1 [Example 20, butyl 4-[4-(1,1′-biphenyl-4-yl)-1H-imidazol-2-yl]piperidine-1-carboxylate]
12 | 116 to 117 | CCCCOC(=O)N1CCCC(c2nc(-c3ccc(-c4ccccc4)cc3)c[nH]2)C1 (stereo not drawn) [Example 24, butyl 3-[4-(1,1′-biphenyl-4-yl)-1H-imidazol-2-yl]piperidine-1-carboxylate]
13 | 181.6 | Fc1ccc(-c2c[nH]c(C3CCCCN3Cc3ccccc3)n2)cc1 (stereo not drawn) [Example 17, 1-benzyl-2-[4-(4-fluorophenyl)-1H-imidazol-2-yl]piperidine]
14 | 157.4 | CCCCOC(=O)N1CCCCC1c1nc(-c2ccc(F)cc2)c[nH]1 (stereo not drawn)
15 | 138 to 139 | CCCCCCN1CCC(c2nc(-c3ccc(-c4ccccc4)cc3)c[nH]2)CC1 [Example 19, 4-[4-(1,1′-biphenyl-4-yl)-1H-imidazol-2-yl]-1-hexylpiperidine]
